Data taken from ChEMBL document CHEMBL4507268 (2021).

Assays:
[1] = biological target: T1, Serine/threonine-protein kinase MAK (Homo sapiens) (UniProt P20794); conditions: Compound concentration 1000.0 nM
T1 sequence (whole entry): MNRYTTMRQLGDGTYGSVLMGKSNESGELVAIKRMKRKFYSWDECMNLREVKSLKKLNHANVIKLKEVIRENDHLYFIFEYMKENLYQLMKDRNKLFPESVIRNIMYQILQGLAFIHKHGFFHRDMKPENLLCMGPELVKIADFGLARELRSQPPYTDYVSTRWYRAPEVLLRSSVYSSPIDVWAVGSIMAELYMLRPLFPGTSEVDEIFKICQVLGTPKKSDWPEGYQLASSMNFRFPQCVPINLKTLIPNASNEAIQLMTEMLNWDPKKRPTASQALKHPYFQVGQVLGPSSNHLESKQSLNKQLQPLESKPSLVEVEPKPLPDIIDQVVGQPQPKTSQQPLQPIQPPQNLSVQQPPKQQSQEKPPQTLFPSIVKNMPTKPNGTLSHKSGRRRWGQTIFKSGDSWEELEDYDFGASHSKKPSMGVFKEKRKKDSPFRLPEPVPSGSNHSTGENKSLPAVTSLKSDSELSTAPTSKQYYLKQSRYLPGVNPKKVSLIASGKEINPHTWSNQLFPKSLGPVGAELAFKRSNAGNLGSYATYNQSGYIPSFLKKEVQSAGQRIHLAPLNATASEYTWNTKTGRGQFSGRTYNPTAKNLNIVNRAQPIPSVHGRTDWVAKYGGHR

[2] = biological target: T2, Aurora kinase A (Homo sapiens) (UniProt O14965); conditions: Compound concentration 1000.0 nM
T2 sequence (whole entry): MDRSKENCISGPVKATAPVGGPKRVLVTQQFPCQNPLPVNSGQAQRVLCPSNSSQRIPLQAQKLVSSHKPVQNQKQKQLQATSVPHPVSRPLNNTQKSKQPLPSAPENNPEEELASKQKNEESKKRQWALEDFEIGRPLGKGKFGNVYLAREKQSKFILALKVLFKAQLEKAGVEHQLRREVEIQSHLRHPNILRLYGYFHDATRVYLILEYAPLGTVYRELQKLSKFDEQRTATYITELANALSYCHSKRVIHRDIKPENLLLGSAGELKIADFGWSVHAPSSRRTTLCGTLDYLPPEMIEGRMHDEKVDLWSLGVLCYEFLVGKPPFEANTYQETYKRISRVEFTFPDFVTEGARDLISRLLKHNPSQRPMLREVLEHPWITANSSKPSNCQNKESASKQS

[3] = test system: Mast/stem cell growth factor receptor Kit (Homo sapiens), P10721 [L576P]; conditions: Compound concentration 1000.0 nM
Mast/stem cell growth factor receptor Kit (Homo sapiens), P10721 [L576P], sequence (P10721 whole entry L576P): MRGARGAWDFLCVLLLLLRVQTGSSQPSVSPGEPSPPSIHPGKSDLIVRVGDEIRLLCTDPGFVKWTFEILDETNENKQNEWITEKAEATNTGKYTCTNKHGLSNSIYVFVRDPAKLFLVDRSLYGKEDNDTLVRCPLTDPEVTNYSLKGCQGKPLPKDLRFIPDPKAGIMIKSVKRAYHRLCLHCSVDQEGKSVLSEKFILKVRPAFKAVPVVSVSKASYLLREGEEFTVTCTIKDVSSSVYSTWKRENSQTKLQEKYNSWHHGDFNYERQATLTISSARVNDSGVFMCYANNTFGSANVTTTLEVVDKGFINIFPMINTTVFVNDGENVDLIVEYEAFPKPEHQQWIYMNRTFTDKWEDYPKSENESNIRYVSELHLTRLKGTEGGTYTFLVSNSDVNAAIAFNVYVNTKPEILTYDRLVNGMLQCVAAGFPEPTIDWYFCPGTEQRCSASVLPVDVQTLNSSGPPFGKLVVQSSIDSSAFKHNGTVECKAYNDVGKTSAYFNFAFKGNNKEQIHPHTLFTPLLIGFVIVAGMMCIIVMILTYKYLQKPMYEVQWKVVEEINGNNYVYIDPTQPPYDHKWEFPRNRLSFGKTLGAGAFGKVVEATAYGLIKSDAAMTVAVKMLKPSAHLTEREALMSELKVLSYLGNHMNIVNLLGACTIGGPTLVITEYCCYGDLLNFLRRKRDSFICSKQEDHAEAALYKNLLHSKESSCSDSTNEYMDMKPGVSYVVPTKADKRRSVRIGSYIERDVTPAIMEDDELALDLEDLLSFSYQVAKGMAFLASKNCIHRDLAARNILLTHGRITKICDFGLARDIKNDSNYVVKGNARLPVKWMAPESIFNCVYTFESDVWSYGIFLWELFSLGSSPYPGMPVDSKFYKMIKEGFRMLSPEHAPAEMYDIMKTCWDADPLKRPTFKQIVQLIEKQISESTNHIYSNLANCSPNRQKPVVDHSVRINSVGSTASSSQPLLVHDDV

[4] = biological target: 5-hydroxytryptamine receptor 6 (Homo sapiens) (UniProt P50406); conditions: Compound concentration 10.0 uM
5-hydroxytryptamine receptor 6 (Homo sapiens), sequence (P50406 whole entry): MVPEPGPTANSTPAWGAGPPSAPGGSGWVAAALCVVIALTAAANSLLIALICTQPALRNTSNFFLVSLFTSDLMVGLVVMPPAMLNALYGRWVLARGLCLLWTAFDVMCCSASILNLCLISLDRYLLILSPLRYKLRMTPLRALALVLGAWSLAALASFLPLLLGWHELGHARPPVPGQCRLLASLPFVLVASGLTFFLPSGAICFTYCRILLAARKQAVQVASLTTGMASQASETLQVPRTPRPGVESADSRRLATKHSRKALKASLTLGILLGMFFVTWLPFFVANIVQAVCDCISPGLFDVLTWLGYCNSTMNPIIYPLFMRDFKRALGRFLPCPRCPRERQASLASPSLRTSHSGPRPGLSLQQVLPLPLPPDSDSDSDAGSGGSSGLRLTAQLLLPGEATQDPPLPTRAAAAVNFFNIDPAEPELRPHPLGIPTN

[5] = biological target: T3, Serine/threonine-protein kinase Nek9 (Homo sapiens) (UniProt Q8TD19); conditions: Compound concentration 1000.0 nM
T3 sequence (whole entry): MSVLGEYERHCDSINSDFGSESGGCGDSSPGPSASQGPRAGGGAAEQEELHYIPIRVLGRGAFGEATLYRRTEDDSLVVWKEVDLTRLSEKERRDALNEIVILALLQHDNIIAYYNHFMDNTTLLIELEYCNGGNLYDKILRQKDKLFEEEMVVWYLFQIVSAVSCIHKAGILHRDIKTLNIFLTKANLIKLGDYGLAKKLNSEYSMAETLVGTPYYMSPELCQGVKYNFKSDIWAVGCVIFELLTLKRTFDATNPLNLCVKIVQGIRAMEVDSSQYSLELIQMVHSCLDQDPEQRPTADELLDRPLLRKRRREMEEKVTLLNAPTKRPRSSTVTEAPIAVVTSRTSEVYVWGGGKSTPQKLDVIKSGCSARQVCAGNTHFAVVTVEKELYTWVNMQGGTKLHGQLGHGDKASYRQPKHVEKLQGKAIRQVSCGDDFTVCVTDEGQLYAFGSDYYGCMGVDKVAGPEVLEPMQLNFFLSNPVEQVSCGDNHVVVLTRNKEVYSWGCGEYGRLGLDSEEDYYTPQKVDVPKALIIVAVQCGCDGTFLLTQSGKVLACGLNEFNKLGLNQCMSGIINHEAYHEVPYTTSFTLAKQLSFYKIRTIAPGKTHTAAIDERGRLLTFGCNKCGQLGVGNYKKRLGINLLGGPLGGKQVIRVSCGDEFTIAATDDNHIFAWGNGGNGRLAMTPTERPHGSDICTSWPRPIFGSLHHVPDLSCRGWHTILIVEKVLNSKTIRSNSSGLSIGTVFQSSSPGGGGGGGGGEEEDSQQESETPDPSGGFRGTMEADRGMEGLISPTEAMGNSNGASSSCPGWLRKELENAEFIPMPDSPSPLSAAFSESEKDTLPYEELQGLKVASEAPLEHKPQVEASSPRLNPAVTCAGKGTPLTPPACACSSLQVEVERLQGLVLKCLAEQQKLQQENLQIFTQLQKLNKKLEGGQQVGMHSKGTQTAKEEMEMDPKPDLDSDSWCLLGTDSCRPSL

[6] = biological target: Serine/threonine-protein kinase Nek5 (Homo sapiens) (UniProt Q6P3R8); conditions: Compound concentration 1000.0 nM
Serine/threonine-protein kinase Nek5 (Homo sapiens), sequence (Q6P3R8 whole entry): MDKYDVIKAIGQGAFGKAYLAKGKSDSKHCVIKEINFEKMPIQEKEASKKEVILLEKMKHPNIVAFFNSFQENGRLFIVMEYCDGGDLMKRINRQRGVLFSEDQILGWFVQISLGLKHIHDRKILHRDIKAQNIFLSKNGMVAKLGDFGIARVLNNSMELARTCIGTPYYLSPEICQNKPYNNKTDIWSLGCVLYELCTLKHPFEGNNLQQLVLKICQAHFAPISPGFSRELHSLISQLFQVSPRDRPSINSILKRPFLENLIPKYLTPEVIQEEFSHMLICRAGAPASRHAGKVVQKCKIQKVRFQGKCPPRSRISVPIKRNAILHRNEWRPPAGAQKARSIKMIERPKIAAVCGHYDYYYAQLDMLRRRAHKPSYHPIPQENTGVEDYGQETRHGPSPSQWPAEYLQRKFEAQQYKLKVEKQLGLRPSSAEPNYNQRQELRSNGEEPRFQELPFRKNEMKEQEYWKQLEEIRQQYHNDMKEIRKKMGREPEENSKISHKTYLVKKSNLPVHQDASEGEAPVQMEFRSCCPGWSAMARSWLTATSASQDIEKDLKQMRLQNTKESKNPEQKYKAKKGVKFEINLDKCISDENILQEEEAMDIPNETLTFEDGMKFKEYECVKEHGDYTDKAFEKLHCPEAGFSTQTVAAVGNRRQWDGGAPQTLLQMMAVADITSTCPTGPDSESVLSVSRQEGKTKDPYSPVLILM

[7] = biological target: BDNF/NT-3 growth factors receptor (Homo sapiens) (UniProt Q16620); conditions: Compound concentration 1000.0 nM
BDNF/NT-3 growth factors receptor (Homo sapiens), sequence (Q16620 32-822 limits assumed): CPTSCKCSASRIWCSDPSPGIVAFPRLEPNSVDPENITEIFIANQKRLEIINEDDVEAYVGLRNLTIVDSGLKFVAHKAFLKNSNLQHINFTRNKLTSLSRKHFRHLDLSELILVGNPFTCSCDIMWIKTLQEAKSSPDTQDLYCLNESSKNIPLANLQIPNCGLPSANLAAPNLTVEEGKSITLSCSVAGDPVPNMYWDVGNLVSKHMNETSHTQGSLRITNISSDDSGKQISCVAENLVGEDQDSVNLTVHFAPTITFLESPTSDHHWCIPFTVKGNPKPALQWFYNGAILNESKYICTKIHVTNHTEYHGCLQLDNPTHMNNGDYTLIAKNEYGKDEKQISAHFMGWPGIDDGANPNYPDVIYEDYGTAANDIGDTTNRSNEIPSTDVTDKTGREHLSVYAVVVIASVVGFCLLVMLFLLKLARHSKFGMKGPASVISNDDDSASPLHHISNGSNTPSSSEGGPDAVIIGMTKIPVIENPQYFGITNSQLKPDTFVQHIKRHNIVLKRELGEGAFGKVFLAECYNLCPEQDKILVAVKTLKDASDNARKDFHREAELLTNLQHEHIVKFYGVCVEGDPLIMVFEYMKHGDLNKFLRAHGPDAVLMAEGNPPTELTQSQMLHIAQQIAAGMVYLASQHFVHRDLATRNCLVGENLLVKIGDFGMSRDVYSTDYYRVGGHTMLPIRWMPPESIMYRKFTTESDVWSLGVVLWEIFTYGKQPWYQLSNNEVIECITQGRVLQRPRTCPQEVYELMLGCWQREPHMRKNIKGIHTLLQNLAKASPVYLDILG

[8] = biological target: Calcium/calmodulin-dependent protein kinase type 1D (Homo sapiens) (UniProt Q8IU85); conditions: Compound concentration 1000.0 nM
Calcium/calmodulin-dependent protein kinase type 1D (Homo sapiens), sequence (Q8IU85 whole entry, looked up): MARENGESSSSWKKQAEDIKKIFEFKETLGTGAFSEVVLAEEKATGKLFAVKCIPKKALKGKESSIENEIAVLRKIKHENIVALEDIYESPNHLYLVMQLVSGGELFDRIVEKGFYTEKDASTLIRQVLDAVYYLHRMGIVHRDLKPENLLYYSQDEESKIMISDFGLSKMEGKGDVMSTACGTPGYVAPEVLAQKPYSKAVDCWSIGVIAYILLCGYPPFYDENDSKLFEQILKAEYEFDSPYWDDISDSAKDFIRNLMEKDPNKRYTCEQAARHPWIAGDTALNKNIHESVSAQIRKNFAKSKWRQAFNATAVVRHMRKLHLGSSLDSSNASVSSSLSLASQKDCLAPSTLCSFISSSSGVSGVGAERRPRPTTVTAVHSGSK

[9] = biological target: Macrophage colony-stimulating factor 1 receptor (Homo sapiens) (UniProt P07333); conditions: Compound concentration 1000.0 nM
Macrophage colony-stimulating factor 1 receptor (Homo sapiens), sequence (P07333 whole entry): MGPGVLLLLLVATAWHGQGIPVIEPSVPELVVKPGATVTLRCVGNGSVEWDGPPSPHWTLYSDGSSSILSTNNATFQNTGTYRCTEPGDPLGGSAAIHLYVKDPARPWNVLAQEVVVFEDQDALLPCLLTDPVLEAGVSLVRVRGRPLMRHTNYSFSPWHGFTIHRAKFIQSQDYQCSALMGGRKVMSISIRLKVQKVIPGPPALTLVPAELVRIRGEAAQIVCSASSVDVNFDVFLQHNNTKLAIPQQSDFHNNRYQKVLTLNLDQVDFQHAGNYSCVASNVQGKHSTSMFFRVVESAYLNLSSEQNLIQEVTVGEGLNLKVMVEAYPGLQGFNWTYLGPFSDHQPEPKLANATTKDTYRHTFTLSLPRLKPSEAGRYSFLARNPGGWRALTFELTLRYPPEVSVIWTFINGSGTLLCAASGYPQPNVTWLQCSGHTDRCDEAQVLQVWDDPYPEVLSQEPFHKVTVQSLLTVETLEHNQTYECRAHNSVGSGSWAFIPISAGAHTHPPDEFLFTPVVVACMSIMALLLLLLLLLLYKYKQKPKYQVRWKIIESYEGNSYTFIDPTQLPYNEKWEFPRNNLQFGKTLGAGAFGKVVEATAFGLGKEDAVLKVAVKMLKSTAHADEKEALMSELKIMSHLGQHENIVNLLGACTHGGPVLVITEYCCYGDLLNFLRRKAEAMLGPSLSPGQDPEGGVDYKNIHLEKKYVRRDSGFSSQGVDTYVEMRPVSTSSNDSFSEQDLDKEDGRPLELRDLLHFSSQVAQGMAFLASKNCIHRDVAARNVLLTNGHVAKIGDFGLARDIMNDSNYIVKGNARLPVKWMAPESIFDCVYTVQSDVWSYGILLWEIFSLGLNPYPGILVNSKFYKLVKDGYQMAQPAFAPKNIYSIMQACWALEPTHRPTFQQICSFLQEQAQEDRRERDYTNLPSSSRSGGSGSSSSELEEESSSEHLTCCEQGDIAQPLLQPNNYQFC

Cc1nc(C2CCN(C(=O)c3ccc(OC(F)(F)F)cc3N)CC2)c2ncc(N3CCN(C)CC3)cc2n1 [BAY-693]
inactive: residual activity [1] 99% | residual activity [2] 99% | residual activity [3] 87% | inhibition [4] -1.38% | residual activity [5] 94% | residual activity [6] 100% | residual activity [7] 100% | residual activity [8] 100% | residual activity [9] 99%

CN1CCN(c2cnc3c(C4CCN(C(=O)c5ccc(OC(F)(F)F)cc5N)CC4)ncnc3c2)CC1 [BAY-885]
inactive: residual activity [1] 100% | residual activity [2] 100% | residual activity [3] 95% | inhibition [4] -4.69% | residual activity [5] 100% | residual activity [6] 100% | residual activity [7] 100% | residual activity [8] 100% | residual activity [9] 100%
